From US20190209572A1, “BIFUNCTIONAL ANTIFUNGAL AGENTS AND METHODS OF TREATING FUNGAL INFECTION” (YALE UNIVERSITY, priority 2016, published 2019)

How the values were obtained:
[1] = ELISA assay for antibody recruitment on immobilized chitin; assay type: binding; settings: FIG. 9A
Method: Free chitin (0.100 g, Alfa Aesar, United Kingdom) was hydrolyzed by adding 10 ml of conc. HCl for 30 min with gentle stirring. An aliquot of the chilin solution(1 mL) was mixed with 9 ml of PBS to the final concentration of 1 mg/mL. This solution was further diluted to 100 μg/mL with PBS and coated overnight at 4° C. in a 96-well Nunc MaxiSorp microtiter plate. Upon completion, the coated plate was blocked with 2% BSA solution at 37° C. for 3 h. Next, compounds and controls at predetermined dilutions made in the 2% BSA blocking solution were added followed by addition of 2 mg/ml anti-DNP biotinylated antibodies diluted 1:100 (Invitrogen, CA). The plate was covered and incubated at 37° C. for 1 h. The plate was washed 3 times with wash solution (0.2% Tween 20 in PBS) and HRP-labeled streptavidin secondary reagent was added at a dilution 1:10000 in 2% BSA. The plate was incubated again at 37° C. for 1 h followed by washing 3 times with wash solution. HRP substrate TMB Ultra solution (Thermo Fischer, IL) was added to the plates and incubated until suitable color development and the reaction was stopped by adding 100 μL of aq. 1N H2SO4. Quantification was performed by measuring absorbance on a plate reader at 450 nm.

Candida albicans = test: Flow cytometry antibody-recruiting assay (anti-DNP antibodies) on C. albicans; assay type: cell-based
Method: Candida albicans cultures were maintained on Sabouraud dextrose agar (SDA) and yeast cell cultures were grown at 30° C. in Sabouraud dextrose broth with shaking at 225 rpm overnight (OD 1.1-1.3). For the assays, 10^5 cells were taken into 50 μL assay medium (5% BSA in PBS 1x) and treated with a fixed concentration of the indicated ARM-F compound from 100x DMSO stocks followed by imminent addition of 50 μL 500x stock solution of anti-DNP-biotine-xx conjugate antibodies in assay medium. Cells were allowed to incubate for 30 min at r.t., then washed twice with 500 μL assay medium followed by addition of 50 μL 500x stock solution of streptavidin-AlexaFluor 647 conjugate and propidium iodide. […] The cells were allowed to incubate for another 30 min, washed with 500 μL assay medium and antibody recruiting to the cell surface was evaluated via flow cytometry by measuring increasing cell counts in the FL-4 channel negative for FL-3.
A flow-cytometry based assay was developed to assess the antibody recruitment ability of candidate ARM-Fs to isolates of C. albicans. We chose this organism for our studies because it is both a known human pathogen, and readily tractable for experimental manipulations.^[13] Ternary complexes formed from ARM-F, fungal cells and anti-DNP antibodies were detected using an anti-DNP secondary antibody conjugated to Alexa Fluor 647 fluorophore. […]

C. albicans = test: Dual color flow cytometry-based fungal opsono-phagocytosis assay; assay type: cell-based, Candida albicans
Description: In the physiological state, neutrophils mediate immune clearance of antibody-opsonized fungal cells.^[18], [19] To mimic this mechanism, we developed a functional assay to analyse ARM-F mediated opsonophagocytosis of fungal cells. The assay is based on two color flow cytometry and operates on the principle of differentiating phagocytosed fungal cells (intracellular) from non-phagocytosed cells (extracellular).^[20] […]
The pro-myeloblast cell line HL-60 was obtained from AtCC and cultured in high serum DMEM-F12 growth medium containing 15% FBS, 1 mM sodium pyruvate, 2 mM L-glutamine, 1X non-essential amino acids with antibiotics penicillin (10 U/mL) and streptomycin (10 μg/mL). […] The cells were counted every 24-48 hours on a Roche Innovatis Cedex XS automated cell counter and generally maintained at a density of 1×10^5 cells/mL. […]
Fungal cells for these experiments were always grown to 1.0 OD and the HL-60 cells to approximately 1×10^5 cells/mL for consistency between experiments. The fungal cells were counted by flow cytometry, pelleted and reconstituted in a fixing solution of ice-cold 70% ethanol and incubated for 1 h. […] After the final wash, the fungal cells were counted again on the flow cytometer and re-constituted in FACS buffer of PBS containing 5% BSA at a density of 2×10^6 cells/mL. […]

[2] = system: caspofungin-treated C. albicans cells; test: Flow cytometry antibody-recruiting assay on C. albicans grown with caspofungin; assay type: cell-based, Candida albicans
Method: The synergistic experiments with Caspofungin were performed as described above, Save that yeast cell cultures were grown in Sabouraud dextrose broth supplemented with a fixed concentration of Caspofungin acetate from DMSO stock solutions.
Cultures of C. albicans Ca2323 were grown in Sabourad dextrose broth (Hardy Diagnostics, CA) to maintain them in a non-sporulating yeast form (blastopore form). S. cerevisiae YPH499 (Mat type a) were grown in YPD brath (Teknova, CA). Chitin-deficient strain S. cerevisiae YMS348s Δchs 1,2,3 was grown in YPD broth supplemented with 1M sorbitol. The fungal cultures were generally grown overnight at 30° C. for the antibody recruitment and phagocytosis assays. For consistency, O.D. measurements were taken using a single cuvette UltraSpec 10 cell density meter and experiments were performed on cultures with similar density. For experiments involving caspofungin treated C. albicans, the cells were grown overnight in media containing 1.25 ng/ml caspofungin acetate (Merck, PA). For experiments involving α factor induced arrest, α factor pheromone trifluoroacetate salt (Bachem, Switzerland) was added to a fresh S. cerevisiae YPH499 culture to a final concentration of 5 μg/mL followed by incubation for 1 h. Then, the cells were treated repeatedly with α factor pheromone trifluoroacetate salt (5 μg/mL) and incubated for an additional 2 h.
Fungal cells for the antibody recruitment experiments were always grown to 1.0 O.D. for consistency across experiments. The fungal cells were pelleted, washed, counted on the flow cytometer and re-constituted in FACS buffer of PBS containing 5% BSA at a density of 1×10^5 cells/mL. One microliter of suitably diluted ARM compound followed by 1 μL of 1:100 diluted anti-DNP biotinylated mouse monoclonal antibody (2 mg/mL, Invitrogen, CA) was added to 100 μL of fungal cells in FACS buffer. The reaction was mixed well and incubated in a 37° C. incubator for 30 minutes. Post incubation, washing was performed by adding 1 mL of FACS buffer to the reaction and the cells pelleted by centrifugation at 10000x g for 5 minutes. The pelleted cells were then reconstituted in 100 μl of FACS buffer followed by addition of 1 μL of 1:1000 diluted AF647 labeled streptavidin (0.5 mg/mL, BioLegend, CA) and 1 μL of 100 μg/ml propidium iodide (PromoKine, Germany). […] All experiments consisted of two sets of controls: (i) flow controls: unstained cells, propidium iodide stained cells, secondary reagent stained cells; (ii) background controls: compound 9 lacking DNP motifs, and no ARM-F. The cells were analyzed by flow cytometry on an Attune Nxt flow cytometer (Thermo Fischer Scientific) and the raw data further analyzed using FlowJo software (FlowJo LLC, OR).

Row | SMILES | binding to chitin (in words) [1] | viability of fungal cells during antibody recruitment (Candida albicans; dose-dependent recruitment, FIG. 8B) | C. albicans cells exhibiting AF647 fluorescence (Candida albicans; no caspofungin, FIG. 8A) | concentration of maximal phagocytosis response (C. albicans; bell-shaped curve, FIG. 10C) | phagocytosis of C. albicans cells (in words) (C. albicans; human neutrophils, anti-DNP antibodies, compared to untreated cells) | fungal cells that recruited antibodies and were alive ([2]; 1 μM of 8, 1.25 ng/ml caspofungin, FIG. 9C) | dose eliciting antibody recruitment comparable to the maximum possible in the non-caspofungin model ([2]; caspofungin treated C. albicans, FIG. 9D) | concentration eliciting maximum response in caspofungin treated cells ([2]; dose ranging, caspofungin treated C. albicans, FIG. 9D) | viability of C. albicans at caspofungin concentrations higher than 1.25 ng/ml ([2]; FIG. 9C)
1 | O=C(NCCOCCOCCOCCOCCOCCOCCOCCOCCOCCNc1ccc([N+](=O)[O-])cc1[N+](=O)[O-])c1ccc(Nc2nc(Nc3ccc(/C=C/c4ccc(Nc5nc(Nc6ccc(C(=O)NCCOCCOCCOCCOCCOCCOCCOCCOCCOCCNc7ccc([N+](=O)[O-])cc7[N+](=O)[O-])cc6)nc(N(CCO)CCO)n5)cc4S(=O)(=O)O)c(S(=O)(=O)O)c3)nc(N(CCO)CCO)n2)cc1 [compound 8] | binds to fungal chitin in a dose-dependent manner | no loss of viability | 35-45% | 10 µM | drastic increase in number of phagocytosed fungal cells | 90% | 10 nM | 1 µM | 
2 | CC[C@H](C)C[C@H](C)CCCCCCCCC(=O)N[C@H]1C[C@@H](O)[C@@H](NCCN)NC(=O)[C@@H]2[C@@H](O)CCN2C(=O)[C@H]([C@H](O)CCN)NC(=O)[C@H]([C@H](O)[C@@H](O)c2ccc(O)cc2)NC(=O)[C@@H]2C[C@@H](O)CN2C(=O)[C@H]([C@@H](C)O)NC1=O [Caspofungin, reference compound] |  |  |  |  |  |  |  |  | reduced viability
